Experimental data: patent US20160129005A1, “ADENINE DERIVATIVES HAVING IMMUNOMODULATING ANTI-INFLAMMATORY AND ANALGESIC ACTIVITY” (MEDESTEA RESEARCH & PRODUCTION S.p.A., priority 2011, published 2016)

Legend:
U937 cells [1] = test: Secretion of pro-inflammatory cytokines by LPS-stimulated U937 cells (ELISA); type: cell-based, human; settings: drug with LPS (12 hrs) or added after LPS for 2 or 6 hours, FIG. 1
Method: The production in vitro of MCP-1 (monocyte chemoattractant protein-1), TNF-α (tumour necrosis factor alpha), IL-6 (interleukin 6) was analysed. These cytokines induce the production of other cytokines that attract leukocytes to the site of inflammation, potentiating the immune response. This amplifies leukocyte “recruitment” at the site of inflammation, promoting “extravasation” of immune cells from the peripheral circulation.
The U937 cells were plated at a density of 250 000 cells/ml and left in quiescence for 24 hours.
The drug was added in fresh medium, simultaneously or after removal of LPS from the culture. The cells were kept in an incubator at 37° C. with supply of CO2 at 5%.
Analysis of the production of growth factors was performed on the cellular supernatants collected, by ELISA assay using commercial kits (Human TNF-α Quantikine ELISA Kit code DTA00C, R&D Systems assay. Human IL-6 Quantikine ELISA Kit code D6050, R&D Systems assay. Human CCL2/MCP-1 Quantikine ELISA Kit code DCP00, R&D Systems assay).

male Sprague Dawley rats = test: Pain from chemotherapeutic drugs: model with paclitaxel (von Frey, Hargreaves); type: in vivo, rat; settings: P≦0.001
Method: One of the best validated models for testing this effect is that described hereunder; repeated administration of paclitaxel to rats. The animals (male Sprague Dawley rats weighing 250-300 g; Harlan, Italy) were treated with paclitaxel (2 mg/kg) administered intraperitoneally on alternate days (day 0,2,4,6). The behavioural tests for thermal and mechanical sensitivity were carried out on day 1 (the day following the first injection of paclitaxel), day 10, day 14 (7 days from the last injection), day 24 (peak severity of hyperalgesia and allodynia), day 30 and day 35 (day on which the animals were sacrificed). The animals (n=15) were divided into three experimental groups. The first group (A) received the treatment with paclitaxel, and was treated daily with […], 6 mg/kg by intraperitoneal injection from day 14 to day 35; the second group (B) treated with paclitaxel, was treated from day 14 to 35 with only the vehicle, and finally the third group consisted of naive animals (C). The results obtained are shown in the bar charts in FIGS. 18 and 19.

U937 cells [2] = test: Production of VEGF in supernatant of U937 culture; type: cell-based, human; settings: FIG. 2
Method: The inhibitory action of […] on the production of VEGF in the supernatant of U937 in culture was also evaluated.

For `C=C(C=O)OC(C=O)n1cnc2c(N)ncnc21` (stereo not drawn) [2-[1-(6-aminopurin-9-yl)-2-oxoethoxy]prop-2-enal], the “cellular secretion of IL-6” value (U937 cells [1]) was “reduces the cellular secretion”, the “cellular secretion of MCP-1” value (U937 cells [1]) was “reduces the cellular secretion” and the “cellular secretion of TNF-α” value (U937 cells [1]) was “reduces the cellular secretion”. For the same compound, the “threshold of mechanical sensitivity (von Frey)” value (male Sprague Dawley rats; group A, paclitaxel + IMMUFLAM 6 mg/kg i.p. daily from day 14, day 30, vehicle 11.85±0.61 s) was 18.28 ± 0.65 s, the “threshold of thermal sensitivity (Hargreaves)” value (male Sprague Dawley rats; paclitaxel + IMMUFLAM 6 mg/kg i.p. for twenty-one days (day 35), vehicle 5.82±0.18 s) was 10.21 ± 0.34 s and the “cellular production of VEGF” value (U937 cells [2]) was “reduced the cellular production of VEGF significantly”.
